Test results from patent publication US20230130103A1, “TARGETED PHARMACOLOGICAL THERAPEUTICS IN UVEAL MELANOMA” (Washington University, priority 2017, published 2023).
Starred links: 1 amine or outer side, 2 acyl side, 3 side chain; linkers in the order of their positions; H or OH if unused. Positions of bridges follow the written chain, without caps; N, C: chain ends. Non-standard residues stand in square brackets, D forms with d. Residues, ends and D or L forms follow the SMILES beside them. *: point of attachment. Leu(3R-OH,Nα-propionyl) = CCC(=O)N[C@H](C(=O)*)[C@H](O)C(C)C; X1 = CC(C)[C@@H](O[*:3])[C@H](N[*:1])C(=O)[*:2]; X2 = CC(C)[C@H](O[*:3])[C@@H](N[*:1])C(=O)[*:2]; NMeaThr = CN[C@H](C(=O)O)[C@H](C)O; dPhLac = O=C(O)[C@H](O)Cc1ccccc1; NMeA = CN[C@@H](C)C(=O)O; NMeDha = C=C(NC)C(=O)O

Tests used:
Format in all cases: cell-based
92.1 cells = test: YAP-driven transcriptional reporter; conditions: Homo sapiens, FIG. 6B, read-out: EC50, increase in expression of YAP-driven transcriptional reporter
Procedure: (§1) Expression data from two experimental replicates are mean-centered; the color gradient corresponds to difference in log 2 ratio of expression from the mean, such that 0.5 versus −0.5 is a total difference of 2-fold in unlogged expression.
(§2) Assays of transcriptional reporters driven by YAP or Gα subunits were performed as described (42, 43). YAP- or Ga-driven firefly luciferase activity was normalized to Renilla luciferase expressed from a constitutive promoter.

Mel202 cells = test: YAP-driven transcriptional reporter; conditions: Homo sapiens, FIG. 6B, read-out: EC50, increase in expression of YAP-driven transcriptional reporter
Procedure: as §1, §2

[1] = biological target: T1, constitutively active Gα13 with Gβγ2 (Homo sapiens, UniProt Q14344, Q226L); test: Split luciferase complementation, Gα interaction with Gβγ2; conditions: FIG. 1A
T1 construct: expressed in transfected cells; host or cells: HEK-293
T1 sequence (Q14344 1-377 Q226L): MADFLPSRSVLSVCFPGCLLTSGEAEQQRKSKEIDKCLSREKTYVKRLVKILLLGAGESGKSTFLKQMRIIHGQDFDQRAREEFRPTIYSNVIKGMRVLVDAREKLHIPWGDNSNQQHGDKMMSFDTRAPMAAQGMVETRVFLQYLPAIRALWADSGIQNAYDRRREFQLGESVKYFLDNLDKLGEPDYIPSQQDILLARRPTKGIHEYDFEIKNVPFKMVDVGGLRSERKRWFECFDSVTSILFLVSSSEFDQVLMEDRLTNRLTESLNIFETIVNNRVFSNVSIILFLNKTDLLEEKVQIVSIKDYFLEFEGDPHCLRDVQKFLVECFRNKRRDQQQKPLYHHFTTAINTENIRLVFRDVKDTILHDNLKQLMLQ
Description: (§3) (FIG. 1A-1C) depicts the effect of FR on the activity state of Gα subunits as determined by interaction with Gβγ or RGS domains in split luciferase complementation assays. FIG. 1A Effect of FR on interaction of Gβγ2 with the indicated wild type (WT) or mutant constitutively active (Q/L) forms of Gα (q) or Gα13 (13). * p<0.01; ** p<0.05. FIG. 1B Potency of FR as a driver of interaction of Gβγ2 with wild type or mutant constitutively active Gαq. FIG. 1C Potency of FR as inhibitor of interaction of RGS2 with mutant constitutively active (Q/L) Gαq, or interaction of the RGS domain of LARG (LARG-RGS) with mutant constitutively active Gα13. FIG. 1D Potency of FR as inhibitor of signal transduction by constitutively active Gαq or Gα13 detected with an SRE(L) promoter-driven transcriptional reporter. Constitutively active Gαq (Q/L), constitutively active Gαq bearing the indicated FR binding site mutations, and constitutively Gα13 (Q/L) were studied.
(§4) To detect protein-protein interactions, a split luciferase complementation assays was used (23), as employed to study activation state-dependent interaction between Gα subunits and cognate binding partners (24).
(§5) Split luciferase assays were performed as described (24). The N-terminal portion of click beetle green luciferase (CBGN) was inserted into the αB-αC loop within the helical domain of wild type (WT) and constitutively active (Q/L) mutant forms of Gα and Gα13. Insertion of foreign proteins at this site preserves Gαfunction (40). The C-terminal region of click beetle green luciferase (CBGC) was fused to the N-termini of G131 (which was co-expressed with untagged Gγ2), RGS2, and the RGS domain of LARG, which interacts with Gal 3 only in the active GTP-bound state (41). HEK-293 cells transiently transfected with various combinations of tagged proteins were treated 18 h with vehicle(DMSO) or FR and luciferase assays were performed to measure reconstituted luciferase activity.

[2] = biological target: T2, wild type Gαq interacting with Gβγ2 (Homo sapiens, UniProt P50148); test: as above; conditions: HEK-293 cells, 18 h, FIG. 1B, read-out: EC50, increase of split luciferase complementation
T2 construct: expressed in transfected cells; host or cells: HEK-293
Description: as §3, §4, §5

wild type Gα13 with Gβγ2 = biological target: T3, wild type Gα13 with Gβγ2 (Homo sapiens, UniProt Q14344); test: as above; conditions: FIG. 1A
T3 construct: expressed in transfected cells; host or cells: HEK-293
Description: as §3, §4, §5

T2 sequence (P50148 whole entry): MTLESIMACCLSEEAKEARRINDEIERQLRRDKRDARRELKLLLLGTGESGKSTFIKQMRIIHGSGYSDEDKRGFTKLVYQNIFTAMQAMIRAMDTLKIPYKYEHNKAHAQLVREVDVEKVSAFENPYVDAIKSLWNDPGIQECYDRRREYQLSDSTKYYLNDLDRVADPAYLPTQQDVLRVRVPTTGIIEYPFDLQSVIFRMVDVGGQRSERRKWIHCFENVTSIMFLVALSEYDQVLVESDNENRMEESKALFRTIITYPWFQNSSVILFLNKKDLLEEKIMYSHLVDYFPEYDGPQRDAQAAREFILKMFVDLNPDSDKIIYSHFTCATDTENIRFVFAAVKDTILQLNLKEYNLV
T2 sequence (P59768 2-68, further chain): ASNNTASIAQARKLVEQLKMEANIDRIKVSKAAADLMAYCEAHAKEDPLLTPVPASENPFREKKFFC
T2 sequence (P62873 whole entry, further chain): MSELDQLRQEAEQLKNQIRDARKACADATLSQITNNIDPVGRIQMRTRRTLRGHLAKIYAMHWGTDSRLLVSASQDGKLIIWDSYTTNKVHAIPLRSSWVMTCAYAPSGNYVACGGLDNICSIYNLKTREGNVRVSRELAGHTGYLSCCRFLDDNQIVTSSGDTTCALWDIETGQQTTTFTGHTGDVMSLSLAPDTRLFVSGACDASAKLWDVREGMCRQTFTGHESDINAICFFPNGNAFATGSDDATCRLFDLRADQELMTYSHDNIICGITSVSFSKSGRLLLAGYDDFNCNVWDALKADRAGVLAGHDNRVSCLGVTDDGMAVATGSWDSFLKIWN
T3 sequence (P59768 2-68): as the sequence (P59768 2-68, further chain) above
T3 sequence (Q14344 whole entry): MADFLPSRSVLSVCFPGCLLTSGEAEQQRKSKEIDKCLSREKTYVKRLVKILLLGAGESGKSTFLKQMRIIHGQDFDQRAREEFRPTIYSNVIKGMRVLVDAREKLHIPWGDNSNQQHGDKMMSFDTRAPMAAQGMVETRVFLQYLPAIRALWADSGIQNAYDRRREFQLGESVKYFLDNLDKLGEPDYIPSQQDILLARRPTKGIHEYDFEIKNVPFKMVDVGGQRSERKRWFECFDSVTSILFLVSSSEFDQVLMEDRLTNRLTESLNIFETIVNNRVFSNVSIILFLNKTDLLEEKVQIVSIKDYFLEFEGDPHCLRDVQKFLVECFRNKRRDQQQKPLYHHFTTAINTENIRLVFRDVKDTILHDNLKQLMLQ
T3 sequence (P62873 whole entry, further chain): as the sequence (P62873 whole entry, further chain) above

## C=C1C(=O)N[C@@H](C)C(=O)N(C)[C@@H](C)C(=O)N[C@H]([C@@H](OC(=O)[C@@H](NC(=O)CC)[C@H](O)C(C)C)C(C)C)C(=O)N(C)[C@@H]([C@H](C)OC)C(=O)O[C@H](C(C)C)[C@H](NC(C)=O)C(=O)O[C@H](Cc2ccccc2)C(=O)N1C [FR, [(1S)-1-[(3S,6R,9S,12S,18R,21S,22R)-21-acetamido-18-benzyl-3-[(1S)-1-methoxyethyl]-4,9,10,12,16-pentamethyl-15-methylidene-2,5,8,11,14,17,20-heptaoxo-22-propan-2-yl-1,19-dioxa-4,7,10,13,16-pentazacyclodocos-6-yl]-2-methylpropyl] (2S,3R)-3-hydroxy-4-methyl-2-(propanoylamino)pentanoate] (Ac-[X1][dPhLac][NMeDha]A[NMeA][X2](Leu(3R-OH,Nα-propionyl))[NMeaThr](Me); ester 1-C)
92.1 cells
  EC50: 3 nM
Mel202 cells
  EC50: 0.8 nM
[1]
  effect on interaction with Gβγ2: lack of effect
[2]
  EC50: 3 nM
Wild type Gα13 with Gβγ2
  effect on interaction with Gβγ2: lack of effect
